Results on two molecules are retold here after publication PMC7669867, “Synthesis and initial screening of lactate dehydrogenase inhibitor activity of 1,3-benzodioxole derivatives” (Scientific Reports, 2020).

Read-outs that look alike come from different tables or passages of the source.

Data set [1] has as its target T1, purified recombinant human LDHA protein (Homo sapiens, UniProt P00338).
T1 construct: purchased Abcam
Description: In vitro LDHA inhibitor activity (NADH fluorescence decrease). The format is biochemical. The settings on record: for LDHB/LDHA: ratio of LDHB IC50 to LDHA IC50 (selectivity); for IC50: synthesized compounds, read-out: LDHA IC50. Here is the method: (§1) The in vitro evaluation of the LDHA inhibitor activities of the synthesized compounds was determined by the NADH intensity decrease through oxidation in a solution of HEPES-K^+, NADH, and pyruvate at a pH = 7.2. The NADH oxidation fluorescence intensity was measured using a spectrofluorometer at 340 nm excitation and 460 nm emission wavelengths, representing the NADH-specific fluorescence spectrum. Furthermore, the in vitro evaluation of the LDHB inhibitor activity was determined as a reverse reaction, which converts lactate to pyruvate by determining the amount of NAD^+ converted to NADH using the above-mentioned spectrophotometric experimental setting (Table 2). Based on this analysis, the half-maximal inhibitory concentration (IC50) of the synthesized compounds was obtained.
In vitro evaluation on LDHA inhibitor activity. LDHA activity assay was performed in accordance with previous studies[16],[18]. Briefly, the various concentrations of compounds were incubated with reaction buffer containing 20 mM HEPES-K^+, 20 μM NADH, 2 mM pyruvate, and 100 ng of purified recombinant human LDHA protein (Abcam, Cambridge, UK). The fluorescence of NADH, which has an excitation wavelength of 340 nm and an emission wavelength of 460 nm, was detected using a microplate spectrofluorometer (Spectramax M2; Molecular Devices, Sunnyvale, CA).

Data set [2] has as its target T2, purified recombinant human LDHB protein (Homo sapiens, UniProt P07195).
T2 construct: purchased Abcam
Description: In vitro LDHB activity assay (NAD+ converted to NADH). In kind it is biochemical. The following applies: synthesized compounds; read-out: LDHB IC50. The procedure: as §1
In vitro analysis was determined the amount of NAD^+ converted to NADH[33]. The assay mixture composed of 100 mM Tris–HCl buffer (pH 8.0), 200 mM sodium L-lactate, 2.5 mM NAD^+, and 100 ng of purified recombinant human LDHB protein (Abcam). The fluorescence intensity of NADH was measured using a spectrofluorometer (Spectramax M2) at 340 nm as excitation wavelength and 460 nm as emission wavelength which is the specific fluorescence of NADH.

Data set [3] deals with human pancreatic cancer PANC-1 cells. Description: Cell viability MTT assay, PANC-1. In kind it is cell-based. The following applies: Homo sapiens, PANC-1; MTT, 48 h; read-out: PANC-1 (GI50). The procedure: (§2) The human pancreatic cancer cell lines, PANC-1 and MiaPaCa-2, human lung cancer A549 cells, human breast cancer MCF-7, and human glioma U87 cells were obtained from the Korean cell line bank (Seoul, Korea). The cells were cultured in Dulbecco’s Modified Eagle Medium (DMEM; ThermoFisher Scientific, Waltham, MA) supplemented with 10% fetal bovine serum (FBS; Sigma-Aldrich) and 1% penicillin/streptomycin (ThermoFisher Scientific). The cells were cultured at 37 °C in an atmosphere containing 5% CO2.
(§3) The potential cytotoxicity of compounds at different concentrations was evaluated using the MTT assay. Briefly, cancer cell lines were pre-incubated in 96-well plates with compounds for 48 h. Subsequently, MTT working solution (2 mg/mL in phosphate buffer solution) was added to each well and the plate was incubated for 4 h at 37 °C in an atmosphere containing 5% CO2. Then, the conditioned media were aspirated, and the formed formazan crystals in living cells were quantified using the microplate reader (Spectramax M2) at 540 nm. The concentrations that produce 50% cell growth inhibition (GI50) were calculated by curves constructed by the plot of cell survival by an assistant of PRISM software (GraphPad, San Diego, CA).
(Tetrazolium dyes change colour on reduction, which living cells bring about.)

Data set [4] concerns human lung cancer A549 cells. The data set can be described thus: Cell viability MTT assay, A549. The format is cell-based. The settings on record: A549, MTT, 48 h, read-out: A549 (GI50). The procedure:
as §2, §3

For data set [5], the system named is human breast cancer MCF-7. The data set can be described thus: Cell viability MTT assay, MCF-7. In kind it is cell-based. The following applies: MCF7, MTT, 48 h, read-out: MCF-7 (GI50). Here is the method:
as §2, §3

For data set [6], the system named is human pancreatic cancer MiaPaCa-2 cells. The data set can be described thus: Cell viability MTT assay, MiaPaCa-2. The settings on record: MIA PaCa-2, MTT, 48 h, read-out: MiaPaCa-2 (GI50). The format is cell-based. Here is the method:
as §2, §3

A further data set relates to human glioma U87 cells. Description: Cell viability MTT assay, U87. In kind it is cell-based. The following applies: U-87 MG, MTT, 48 h, read-out: U87 (GI50). Here is the method:
as §2, §3

The next data set concerns several cancer cells. Description: Cell viability MTT assay, several cancer cells. In kind it is cell-based. The following applies: Homo sapiens, cell line not given, read-out: concentration of half-maximal growth inhibition (GI50). The procedure:
To assess the anticancer potency of these compounds in several cancer cells, we determined the cell toxicities of these compounds using an MTT assay. […] On the other hand, compound 10 has higher cytotoxicity compared to other compounds in various cancer cell lines. […] There is a small difference between standard compounds and compound 10 in growth inhibition of PANC-1 cells.
as §3

The next data set has as its target T3, CYP1A2 (Homo sapiens, UniProt P05177).
T3 construct: Pooled Human liver microsomes (Sigma-Aldrich; 0.25 mg/mL); tissue Sigma-Aldrich; host or cells: pooled human liver microsomes
T3 sequence (P05177 1-516): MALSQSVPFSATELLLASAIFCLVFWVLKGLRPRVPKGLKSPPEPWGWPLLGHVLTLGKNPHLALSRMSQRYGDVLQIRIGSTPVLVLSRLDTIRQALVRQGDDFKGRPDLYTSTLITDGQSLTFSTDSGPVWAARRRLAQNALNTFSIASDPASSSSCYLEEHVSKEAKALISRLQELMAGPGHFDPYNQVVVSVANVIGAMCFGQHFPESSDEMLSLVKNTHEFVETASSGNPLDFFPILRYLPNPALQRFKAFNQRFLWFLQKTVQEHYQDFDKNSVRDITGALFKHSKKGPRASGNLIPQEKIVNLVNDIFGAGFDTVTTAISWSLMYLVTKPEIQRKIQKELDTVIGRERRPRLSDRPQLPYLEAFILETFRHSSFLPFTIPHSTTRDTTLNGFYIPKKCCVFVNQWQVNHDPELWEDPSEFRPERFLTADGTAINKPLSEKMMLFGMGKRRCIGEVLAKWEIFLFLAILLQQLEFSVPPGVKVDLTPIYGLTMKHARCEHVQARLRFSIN
Description: CYP isozymes activity assay, CYP1A2. In kind it is in vitro ADME. The settings on record: microsomes, 0.1 µM. Here is the method:
(§4) Pooled Human liver microsomes (Sigma-Aldrich; 0.25 mg/mL), 0.1 M phosphate buffer solution (pH 7.4), the five most commonly used substrate cocktails, such as 50 µM phenacetin (CYP1A2), 10 µM diclofenac […], 100 µM S-mephenytoin (CYP2C19) 5 µM dextromethorphan (CYP2D6), and 2.5 µM midazolam (CYP3A4), and compound 10 are pre-incubated at 37 °C for 5 min, then incubated with NADPH generation system solution for 15 min. To finish the enzymatic reaction, an acetonitrile solution (containing terfenadine) is added. The reaction tubes are centrifuged and the supernatant is withdrawn for analysis by LC–MS/MS.

For a further data set, the target named is T4, CYP2C9 (Homo sapiens, UniProt P11712).
T4 construct: Pooled Human liver microsomes (Sigma-Aldrich; 0.25 mg/mL); tissue Sigma-Aldrich; host or cells: pooled human liver microsomes
T4 sequence (P11712 whole entry): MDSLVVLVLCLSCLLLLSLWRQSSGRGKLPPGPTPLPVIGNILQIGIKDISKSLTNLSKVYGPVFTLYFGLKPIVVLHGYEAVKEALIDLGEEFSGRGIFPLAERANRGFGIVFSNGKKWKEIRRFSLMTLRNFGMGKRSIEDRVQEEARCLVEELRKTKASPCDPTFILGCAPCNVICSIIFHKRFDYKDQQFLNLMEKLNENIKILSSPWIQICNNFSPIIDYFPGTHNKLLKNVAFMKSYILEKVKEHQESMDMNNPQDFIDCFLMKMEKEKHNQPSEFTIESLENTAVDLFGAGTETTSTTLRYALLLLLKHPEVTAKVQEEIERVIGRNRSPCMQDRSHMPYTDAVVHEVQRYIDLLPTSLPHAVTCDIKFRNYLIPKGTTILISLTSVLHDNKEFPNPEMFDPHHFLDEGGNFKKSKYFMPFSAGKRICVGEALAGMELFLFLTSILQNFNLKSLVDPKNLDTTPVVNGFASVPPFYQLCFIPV
The data set can be described thus: CYP isozymes activity assay, CYP2C9. In kind it is in vitro ADME. The settings on record: microsomes, 0.1 µM. Here is the method: as §4

Another data set addresses T5, CYP2C19 (Homo sapiens, UniProt P33261).
T5 construct: Pooled Human liver microsomes (Sigma-Aldrich; 0.25 mg/mL); tissue Sigma-Aldrich; host or cells: pooled human liver microsomes
The data set can be described thus: CYP isozymes activity assay, CYP2C19. In kind it is in vitro ADME. The following applies: microsomes, 0.1 µM. Here is the method:
as §4

The target in the next data set is T6, CYP2D6 (Homo sapiens, UniProt P10635).
T6 construct: Pooled Human liver microsomes (Sigma-Aldrich; 0.25 mg/mL); tissue Sigma-Aldrich; host or cells: pooled human liver microsomes
T6 sequence (P10635 whole entry): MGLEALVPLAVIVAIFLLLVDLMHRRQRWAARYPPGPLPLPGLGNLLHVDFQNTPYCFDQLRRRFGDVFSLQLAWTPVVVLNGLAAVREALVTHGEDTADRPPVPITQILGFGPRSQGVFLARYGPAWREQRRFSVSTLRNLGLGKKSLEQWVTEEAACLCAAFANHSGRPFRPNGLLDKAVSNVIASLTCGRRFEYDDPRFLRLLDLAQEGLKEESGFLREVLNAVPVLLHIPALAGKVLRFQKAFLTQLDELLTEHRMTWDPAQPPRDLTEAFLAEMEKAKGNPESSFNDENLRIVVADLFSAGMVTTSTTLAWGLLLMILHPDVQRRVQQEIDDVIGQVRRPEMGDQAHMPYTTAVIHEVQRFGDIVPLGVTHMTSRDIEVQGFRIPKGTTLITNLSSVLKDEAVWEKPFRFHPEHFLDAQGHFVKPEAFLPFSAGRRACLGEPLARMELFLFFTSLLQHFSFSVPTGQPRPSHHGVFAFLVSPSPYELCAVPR
The data set can be described thus: CYP isozymes activity assay, CYP2D6. In kind it is in vitro ADME. The following applies: microsomes, 0.1 µM. The procedure: as §4

In a further data set the target is T7, CYP3A4 (Homo sapiens, UniProt P08684).
T7 construct: Pooled Human liver microsomes (Sigma-Aldrich; 0.25 mg/mL); tissue Sigma-Aldrich; host or cells: pooled human liver microsomes
T7 sequence (P08684 whole entry): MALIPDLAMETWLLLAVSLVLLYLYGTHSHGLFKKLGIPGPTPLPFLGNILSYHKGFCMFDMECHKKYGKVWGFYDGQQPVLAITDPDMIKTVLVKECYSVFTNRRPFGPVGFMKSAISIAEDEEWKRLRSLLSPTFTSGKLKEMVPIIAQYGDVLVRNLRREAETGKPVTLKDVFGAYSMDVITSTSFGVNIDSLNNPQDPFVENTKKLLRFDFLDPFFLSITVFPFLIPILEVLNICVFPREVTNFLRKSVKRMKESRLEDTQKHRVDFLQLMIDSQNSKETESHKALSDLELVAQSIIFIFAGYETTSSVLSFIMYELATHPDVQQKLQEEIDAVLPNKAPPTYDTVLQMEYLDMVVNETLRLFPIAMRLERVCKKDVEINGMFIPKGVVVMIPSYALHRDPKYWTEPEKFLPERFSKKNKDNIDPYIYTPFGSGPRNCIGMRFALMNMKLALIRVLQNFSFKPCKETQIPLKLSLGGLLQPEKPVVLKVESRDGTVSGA
The data set can be described thus: CYP isozymes activity assay, CYP3A4. The format is in vitro ADME. The settings on record: microsomes, 0.1 µM. The procedure:
as §4

A short description of data set [7]: Human liver microsomal stability. The format is in vitro ADME. The following applies: microsomes, pH 7.4. The procedure: (§5) To finish the reaction, an acetonitrile solution (involved in chlorpropamide) is added. The reaction tubes are centrifuged and the supernatant is withdrawn for analysis by LC–MS/MS.
On the technique in general: Microsomes from liver hold many membrane-bound enzymes, among them those of drug oxidation.

Data set [8] can be described thus: in vitro. The settings on record: rat, microsomes, pH 7.4. The format is in vitro ADME. The procedure:
as §5

The nature of data set [9]: in vitro. The format is in vitro ADME, human. Here is the method:
(§6) Human and rat plasma (Sigma-Aldrich) are incubated at 37 °C with test compounds. During the incubation, aliquots are withdrawn at 0, 30, 120 min time points and acetonitrile solution (containing chlorpropamide) is added. After vortexing, the aliquots are centrifuged and the supernatant is withdrawn for analysis by LC–MS/MS.

Data set [10] is described as follows: in vitro. In kind it is in vitro ADME, rat. Here is the method:
as §6

By IC50 is commonly meant the concentration at which inhibition is half-maximal. A word on the amount remaining: it is the share of the starting amount still present when the sample was taken. Read a high amount remaining as less turnover.

T2 sequence (P07195 whole entry): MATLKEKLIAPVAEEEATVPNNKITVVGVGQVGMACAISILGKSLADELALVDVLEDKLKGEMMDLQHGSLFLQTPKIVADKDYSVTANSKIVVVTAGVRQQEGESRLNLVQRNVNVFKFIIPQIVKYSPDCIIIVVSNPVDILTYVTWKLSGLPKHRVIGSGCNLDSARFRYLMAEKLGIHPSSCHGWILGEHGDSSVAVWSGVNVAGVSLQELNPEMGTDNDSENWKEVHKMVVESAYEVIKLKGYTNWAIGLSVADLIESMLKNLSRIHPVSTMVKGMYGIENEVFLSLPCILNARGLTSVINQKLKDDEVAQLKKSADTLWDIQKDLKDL
T5 sequence (P33261 whole entry): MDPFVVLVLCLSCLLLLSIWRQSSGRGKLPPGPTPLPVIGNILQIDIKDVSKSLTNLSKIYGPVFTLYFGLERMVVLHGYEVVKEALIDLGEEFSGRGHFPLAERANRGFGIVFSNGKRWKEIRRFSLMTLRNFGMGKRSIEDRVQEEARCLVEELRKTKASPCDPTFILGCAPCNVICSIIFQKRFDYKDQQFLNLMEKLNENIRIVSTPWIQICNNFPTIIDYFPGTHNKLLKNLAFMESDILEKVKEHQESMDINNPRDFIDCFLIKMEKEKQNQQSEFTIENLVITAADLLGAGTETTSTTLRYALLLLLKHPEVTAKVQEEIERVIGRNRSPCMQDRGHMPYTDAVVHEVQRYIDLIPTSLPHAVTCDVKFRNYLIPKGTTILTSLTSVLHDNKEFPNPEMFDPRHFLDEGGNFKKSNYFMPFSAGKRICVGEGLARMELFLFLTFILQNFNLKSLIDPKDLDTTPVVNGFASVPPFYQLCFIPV

For the molecule `O=C(OCc1ccc2c(c1)OCO2)c1ccc(C(F)(F)F)cc1` [Compound 2], in [1], the LDHB/LDHA was found to be 29.00. In addition, the results for the IC50 in data set [1] and in [2] were 13.6 µM and 395 µM, respectively. In addition, the GI50 (in [3]; in [4]; in data set [5]; in data set [6]; in the data set on human glioma U87 cells; with several cancer cells) was over 1000 µM each time.
For the molecule `FC(F)(F)c1ccc(Sc2nc3ccccc3s2)cc1` [Compound 10], the LDHB/LDHA in [1] is listed as over 21.18. For the same molecule, the IC50 in data set [1] is 47.2 µM; in data set [2] it was over 1000 µM. Moreover, the GI50 came to 12.2 µM in data set [3]; 56.5 µM in data set [4]; 61.4 µM in [5]; 88.9 µM in data set [6]; 343 µM in the data set with human glioma U87 cells. For the same molecule, the “CYP1A2 isozyme activity (% of control activity)” value on CYP1A2 was 36.7 % of control activity. Further, the “CYP2C9 isozyme activity (% of control activity)” value at CYP2C9 was 97.4 % of control activity. Also, at CYP2C19, the “CYP2C19 isozyme activity (% of control activity)” value is 12.1 % of control activity. In addition, the “CYP2D6 isozyme activity (% of control activity)” value at CYP2D6 was 95.1 % of control activity. Also, the “CYP3A4 isozyme activity (% of control activity)” value on CYP3A4 is > 100 % of control activity. The amount remaining at 0.5 h, 1 µM is 9.5% in data set [7] and 5.2% in the data set “in vitro [8]”. Also, the “plasma stability (in words)” value in the data set “in vitro [9]” and in “in vitro [10]” was “stable” in each case. In addition, the share remaining at 0.5 h stood at 98.1% in “in vitro [9]” (human, plasma) and 93.8% in “in vitro [10]” (rat, plasma). Also, the amount remaining at 2 h in the data set “in vitro [9]” (human, plasma) came to 91.6%; in “in vitro [10]” (rat, plasma) it was 87.5%.
